In ChEMBL document CHEMBL4680122, “Design, synthesis and biological evaluation of new Axl kinase inhibitors containing 1,3,4-oxadiazole acetamide moiety as novel linker” (Eur J Med Chem, 2020):

What was measured:
[1] = biological target: Mast/stem cell growth factor receptor Kit (Homo sapiens, UniProt P10721); experiment: Inhibition of human N-terminal GST-tagged c-Kit cytoplasmic domain (544 to end residues) expressed in baculovirus infected Sf21 insect cells using peptide substrate measured after 1 hr by mobility shift assay
Chain of Mast/stem cell growth factor receptor Kit (P10721 whole entry, the tested form may be a part): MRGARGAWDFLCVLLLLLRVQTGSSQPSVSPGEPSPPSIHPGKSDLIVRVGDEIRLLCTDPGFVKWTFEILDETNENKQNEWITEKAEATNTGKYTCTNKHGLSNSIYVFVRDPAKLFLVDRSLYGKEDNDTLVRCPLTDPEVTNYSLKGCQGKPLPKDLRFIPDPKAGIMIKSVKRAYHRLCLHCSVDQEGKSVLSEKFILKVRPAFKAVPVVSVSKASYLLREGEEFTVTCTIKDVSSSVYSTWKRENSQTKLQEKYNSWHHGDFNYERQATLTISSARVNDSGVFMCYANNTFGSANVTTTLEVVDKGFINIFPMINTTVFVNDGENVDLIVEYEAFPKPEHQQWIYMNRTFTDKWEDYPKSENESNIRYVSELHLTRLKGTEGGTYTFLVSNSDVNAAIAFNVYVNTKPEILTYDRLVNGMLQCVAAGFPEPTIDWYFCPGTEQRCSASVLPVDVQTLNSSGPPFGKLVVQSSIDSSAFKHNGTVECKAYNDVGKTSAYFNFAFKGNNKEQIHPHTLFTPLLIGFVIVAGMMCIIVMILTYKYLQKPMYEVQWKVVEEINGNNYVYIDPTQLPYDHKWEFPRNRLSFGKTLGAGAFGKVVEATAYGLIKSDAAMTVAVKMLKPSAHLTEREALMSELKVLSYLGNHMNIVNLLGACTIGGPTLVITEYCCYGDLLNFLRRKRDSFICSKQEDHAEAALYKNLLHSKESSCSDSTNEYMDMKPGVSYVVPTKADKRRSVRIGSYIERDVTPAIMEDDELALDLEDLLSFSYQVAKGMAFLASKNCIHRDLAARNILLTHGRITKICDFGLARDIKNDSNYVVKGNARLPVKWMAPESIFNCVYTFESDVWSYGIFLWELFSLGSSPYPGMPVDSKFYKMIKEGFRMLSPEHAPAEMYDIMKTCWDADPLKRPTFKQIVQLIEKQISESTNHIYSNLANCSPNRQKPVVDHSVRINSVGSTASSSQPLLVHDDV

[2] = biological target: Vascular endothelial growth factor receptor 2 (Homo sapiens, UniProt P35968); experiment: Inhibition of human N-terminal GST-fused KDR cytoplasmic domain (790 to 1356 residues) expressed in baculovirus expression system using CSKtide as substrate measured after 1 hr by mobility shift assay
Chain of Vascular endothelial growth factor receptor 2 (P35968 whole entry, the tested form may be a part): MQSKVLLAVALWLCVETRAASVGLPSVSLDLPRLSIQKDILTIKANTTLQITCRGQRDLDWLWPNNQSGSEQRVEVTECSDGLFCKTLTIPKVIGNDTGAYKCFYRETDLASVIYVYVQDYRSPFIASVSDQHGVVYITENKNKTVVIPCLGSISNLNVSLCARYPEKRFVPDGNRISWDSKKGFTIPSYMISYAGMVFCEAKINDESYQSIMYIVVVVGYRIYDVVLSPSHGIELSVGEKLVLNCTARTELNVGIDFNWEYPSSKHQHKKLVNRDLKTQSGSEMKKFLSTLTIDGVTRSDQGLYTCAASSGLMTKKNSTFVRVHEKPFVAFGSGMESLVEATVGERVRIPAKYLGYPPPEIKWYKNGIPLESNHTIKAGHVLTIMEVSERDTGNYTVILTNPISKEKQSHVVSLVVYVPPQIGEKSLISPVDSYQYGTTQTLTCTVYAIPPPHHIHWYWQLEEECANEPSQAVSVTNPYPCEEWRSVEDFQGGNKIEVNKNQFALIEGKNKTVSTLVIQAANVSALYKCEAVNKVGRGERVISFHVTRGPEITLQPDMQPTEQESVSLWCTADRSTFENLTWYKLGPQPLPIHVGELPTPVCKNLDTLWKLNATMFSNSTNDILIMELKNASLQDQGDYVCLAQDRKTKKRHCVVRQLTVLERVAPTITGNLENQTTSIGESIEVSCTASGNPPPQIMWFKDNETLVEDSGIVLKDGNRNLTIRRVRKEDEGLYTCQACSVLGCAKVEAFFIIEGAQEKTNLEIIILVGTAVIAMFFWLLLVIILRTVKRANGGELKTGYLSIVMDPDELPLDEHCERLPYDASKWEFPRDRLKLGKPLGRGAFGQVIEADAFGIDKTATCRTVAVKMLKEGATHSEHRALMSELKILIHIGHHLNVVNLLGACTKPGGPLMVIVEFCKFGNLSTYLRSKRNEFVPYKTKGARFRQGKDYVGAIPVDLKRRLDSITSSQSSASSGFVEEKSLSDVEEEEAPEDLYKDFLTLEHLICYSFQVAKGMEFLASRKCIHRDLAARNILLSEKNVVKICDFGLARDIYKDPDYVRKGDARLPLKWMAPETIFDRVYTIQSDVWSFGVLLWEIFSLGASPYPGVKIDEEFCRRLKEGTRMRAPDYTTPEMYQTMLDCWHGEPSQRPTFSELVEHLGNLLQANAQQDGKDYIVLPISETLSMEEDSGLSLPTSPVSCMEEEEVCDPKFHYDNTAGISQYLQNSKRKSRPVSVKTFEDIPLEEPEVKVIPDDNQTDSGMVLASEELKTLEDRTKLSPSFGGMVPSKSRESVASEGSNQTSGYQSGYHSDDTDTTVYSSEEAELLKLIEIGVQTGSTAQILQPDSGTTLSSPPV

[3] = biological target: Platelet-derived growth factor receptor beta (Homo sapiens, UniProt P09619); experiment: Inhibition of human His-tagged PDGFRB cytoplasmic domain expressed in baculovirus expression system using peptide substrate measured after 1 hr by mobility shift assay
Chain of Platelet-derived growth factor receptor beta (P09619 whole entry, the tested form may be a part): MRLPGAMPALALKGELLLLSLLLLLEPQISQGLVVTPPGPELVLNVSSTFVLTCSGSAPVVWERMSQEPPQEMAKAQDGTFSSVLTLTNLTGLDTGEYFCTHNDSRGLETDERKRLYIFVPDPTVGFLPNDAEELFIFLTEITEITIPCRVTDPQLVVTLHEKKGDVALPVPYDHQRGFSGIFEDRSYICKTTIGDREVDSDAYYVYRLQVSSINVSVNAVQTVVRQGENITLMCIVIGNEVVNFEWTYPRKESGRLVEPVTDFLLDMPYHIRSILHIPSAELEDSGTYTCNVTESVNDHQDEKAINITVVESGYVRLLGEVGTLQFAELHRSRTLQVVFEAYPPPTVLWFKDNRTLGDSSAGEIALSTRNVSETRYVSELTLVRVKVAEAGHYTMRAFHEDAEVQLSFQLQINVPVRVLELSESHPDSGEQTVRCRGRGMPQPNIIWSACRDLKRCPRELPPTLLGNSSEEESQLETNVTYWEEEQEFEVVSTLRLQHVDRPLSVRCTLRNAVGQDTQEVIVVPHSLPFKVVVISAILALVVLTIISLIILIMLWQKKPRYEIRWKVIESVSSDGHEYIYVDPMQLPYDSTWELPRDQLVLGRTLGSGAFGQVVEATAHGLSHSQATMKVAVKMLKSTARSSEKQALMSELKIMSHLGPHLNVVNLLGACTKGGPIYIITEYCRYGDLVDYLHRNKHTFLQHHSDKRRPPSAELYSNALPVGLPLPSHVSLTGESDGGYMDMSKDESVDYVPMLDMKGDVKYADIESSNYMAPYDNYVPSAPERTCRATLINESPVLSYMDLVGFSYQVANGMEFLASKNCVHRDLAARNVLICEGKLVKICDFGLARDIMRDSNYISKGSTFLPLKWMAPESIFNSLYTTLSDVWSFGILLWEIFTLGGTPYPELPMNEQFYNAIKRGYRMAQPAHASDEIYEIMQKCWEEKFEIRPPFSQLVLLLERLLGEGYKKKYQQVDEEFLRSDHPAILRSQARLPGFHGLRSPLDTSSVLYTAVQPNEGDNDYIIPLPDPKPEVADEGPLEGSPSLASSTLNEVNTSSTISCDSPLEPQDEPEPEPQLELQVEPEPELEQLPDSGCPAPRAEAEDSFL

[4] = test system: PC-3; experiment: cells; settings: Homo sapiens, PC-3, 72 h
Description: Antiproliferative activity against human PC-3 cells measured after 72 hrs by MTT assay

[5] = biological target: T1, Receptor-type tyrosine-protein kinase FLT3 (Homo sapiens, UniProt P36888); experiment: Inhibition of human N-terminal GST-fused FLT3 cytoplasmic domain (564 to 993 residues) expressed in baculovirus expression system using Srctide as substrate measured after 1 hr by mobility shift assay
T1 sequence (P36888 whole entry): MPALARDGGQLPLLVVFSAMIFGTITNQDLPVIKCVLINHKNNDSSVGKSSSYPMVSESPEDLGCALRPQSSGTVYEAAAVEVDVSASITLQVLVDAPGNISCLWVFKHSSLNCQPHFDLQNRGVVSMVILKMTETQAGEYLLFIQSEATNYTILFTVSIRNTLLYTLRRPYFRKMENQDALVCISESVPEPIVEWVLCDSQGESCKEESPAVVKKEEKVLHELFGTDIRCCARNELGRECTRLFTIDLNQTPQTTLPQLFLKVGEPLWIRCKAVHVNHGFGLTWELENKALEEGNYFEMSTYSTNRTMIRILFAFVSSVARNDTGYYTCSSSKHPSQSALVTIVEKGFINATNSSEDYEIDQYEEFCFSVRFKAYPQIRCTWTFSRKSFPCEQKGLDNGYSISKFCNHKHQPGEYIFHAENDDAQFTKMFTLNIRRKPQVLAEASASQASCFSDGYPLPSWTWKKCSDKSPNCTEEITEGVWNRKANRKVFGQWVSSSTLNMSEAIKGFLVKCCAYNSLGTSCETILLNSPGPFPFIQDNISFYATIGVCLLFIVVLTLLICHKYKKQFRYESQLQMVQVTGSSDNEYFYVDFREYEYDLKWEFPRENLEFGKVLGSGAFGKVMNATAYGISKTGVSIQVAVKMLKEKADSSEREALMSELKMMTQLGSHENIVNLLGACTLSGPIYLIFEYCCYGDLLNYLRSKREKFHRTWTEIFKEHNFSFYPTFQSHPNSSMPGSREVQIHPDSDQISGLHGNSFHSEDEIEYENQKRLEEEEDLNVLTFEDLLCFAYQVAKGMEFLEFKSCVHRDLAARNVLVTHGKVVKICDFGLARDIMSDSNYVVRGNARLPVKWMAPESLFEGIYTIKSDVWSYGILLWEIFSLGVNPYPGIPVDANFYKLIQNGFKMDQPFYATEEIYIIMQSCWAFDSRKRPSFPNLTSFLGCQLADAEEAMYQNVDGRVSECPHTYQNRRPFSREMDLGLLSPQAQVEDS

[6] = test system: HT-29; experiment: Antiproliferative activity against human HT-29 cells measured after 72 hrs by MTT assay; settings: HT-29, 72 h
[7] = test system: A549; experiment: cells; settings: Homo sapiens, A549, 72 h
Description: Antiproliferative activity against human A549 cells measured after 72 hrs by MTT assay

[8] = biological target: Hepatocyte growth factor receptor (Homo sapiens, UniProt P08581); experiment: Inhibition of human N-terminal GST-fused c-MET cytoplasmic domain (956 to 1390 residues) expressed in baculovirus expression system using Srctide as substrate measured after 1 hr by mobility shift assay
Chain of Hepatocyte growth factor receptor (P08581 whole entry, the tested form may be a part): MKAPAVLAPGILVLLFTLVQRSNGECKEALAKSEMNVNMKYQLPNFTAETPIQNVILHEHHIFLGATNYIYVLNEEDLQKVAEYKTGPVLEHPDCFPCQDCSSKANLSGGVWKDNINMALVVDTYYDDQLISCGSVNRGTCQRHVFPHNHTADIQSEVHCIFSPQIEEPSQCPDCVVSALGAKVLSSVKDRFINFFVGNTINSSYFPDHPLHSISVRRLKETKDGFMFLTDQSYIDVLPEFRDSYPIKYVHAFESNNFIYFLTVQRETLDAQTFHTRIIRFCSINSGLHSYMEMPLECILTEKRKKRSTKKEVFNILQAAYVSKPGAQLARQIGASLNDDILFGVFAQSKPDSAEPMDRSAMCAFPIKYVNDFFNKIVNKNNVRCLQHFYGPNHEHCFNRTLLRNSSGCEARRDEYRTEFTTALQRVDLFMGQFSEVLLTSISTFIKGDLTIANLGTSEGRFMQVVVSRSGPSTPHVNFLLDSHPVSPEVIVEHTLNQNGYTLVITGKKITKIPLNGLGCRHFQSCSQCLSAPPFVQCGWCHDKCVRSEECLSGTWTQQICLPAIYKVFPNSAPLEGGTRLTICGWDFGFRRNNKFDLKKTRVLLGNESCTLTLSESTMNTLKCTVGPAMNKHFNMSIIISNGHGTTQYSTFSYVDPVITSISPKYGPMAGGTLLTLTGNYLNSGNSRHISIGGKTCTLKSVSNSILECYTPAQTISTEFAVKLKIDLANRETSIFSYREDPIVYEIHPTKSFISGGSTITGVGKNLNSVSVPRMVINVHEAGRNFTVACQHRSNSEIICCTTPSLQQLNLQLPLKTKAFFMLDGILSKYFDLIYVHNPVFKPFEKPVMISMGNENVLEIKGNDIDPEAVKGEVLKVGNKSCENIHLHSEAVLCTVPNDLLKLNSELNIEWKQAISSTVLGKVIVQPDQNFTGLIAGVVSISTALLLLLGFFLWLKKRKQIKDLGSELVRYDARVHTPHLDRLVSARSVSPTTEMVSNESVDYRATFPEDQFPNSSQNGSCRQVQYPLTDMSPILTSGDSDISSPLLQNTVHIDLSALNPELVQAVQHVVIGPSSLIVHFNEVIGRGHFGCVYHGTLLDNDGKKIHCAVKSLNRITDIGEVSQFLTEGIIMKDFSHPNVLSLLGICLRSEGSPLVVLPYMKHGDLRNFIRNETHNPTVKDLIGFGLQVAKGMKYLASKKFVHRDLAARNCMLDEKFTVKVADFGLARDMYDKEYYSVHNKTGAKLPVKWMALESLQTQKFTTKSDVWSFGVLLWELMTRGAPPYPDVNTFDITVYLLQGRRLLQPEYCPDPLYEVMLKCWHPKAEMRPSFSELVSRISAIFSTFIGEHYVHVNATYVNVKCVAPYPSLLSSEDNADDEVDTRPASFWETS

[9] = biological target: T2, Tyrosine-protein kinase Mer (Homo sapiens, UniProt Q12866); experiment: Inhibition of MER (unknown origin)
T2 sequence (Q12866 whole entry): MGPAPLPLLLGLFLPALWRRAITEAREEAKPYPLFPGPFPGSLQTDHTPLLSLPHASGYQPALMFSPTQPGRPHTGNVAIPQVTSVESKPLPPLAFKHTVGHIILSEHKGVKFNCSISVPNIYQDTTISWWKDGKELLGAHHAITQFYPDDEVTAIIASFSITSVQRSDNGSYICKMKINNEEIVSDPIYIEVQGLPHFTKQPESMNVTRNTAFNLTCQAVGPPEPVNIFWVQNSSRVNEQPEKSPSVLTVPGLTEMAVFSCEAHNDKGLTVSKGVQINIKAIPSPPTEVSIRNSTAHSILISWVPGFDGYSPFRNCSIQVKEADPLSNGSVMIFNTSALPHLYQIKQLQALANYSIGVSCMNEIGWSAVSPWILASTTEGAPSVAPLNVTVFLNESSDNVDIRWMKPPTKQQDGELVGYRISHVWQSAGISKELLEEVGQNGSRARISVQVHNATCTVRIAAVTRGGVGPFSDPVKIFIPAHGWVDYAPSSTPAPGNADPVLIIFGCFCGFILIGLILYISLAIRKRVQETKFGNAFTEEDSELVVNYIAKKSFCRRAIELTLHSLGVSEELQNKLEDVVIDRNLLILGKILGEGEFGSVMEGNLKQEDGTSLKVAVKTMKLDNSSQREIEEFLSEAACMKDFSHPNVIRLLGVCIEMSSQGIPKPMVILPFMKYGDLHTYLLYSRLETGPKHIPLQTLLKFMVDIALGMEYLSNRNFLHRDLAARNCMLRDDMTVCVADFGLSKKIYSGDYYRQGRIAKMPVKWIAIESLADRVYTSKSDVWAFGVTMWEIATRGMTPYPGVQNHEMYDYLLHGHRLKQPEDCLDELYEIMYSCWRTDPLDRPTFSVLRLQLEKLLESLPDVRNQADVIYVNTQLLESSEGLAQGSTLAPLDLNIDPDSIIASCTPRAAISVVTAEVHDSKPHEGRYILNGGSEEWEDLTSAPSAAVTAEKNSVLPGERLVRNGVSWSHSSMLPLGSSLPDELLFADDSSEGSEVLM

[10] = test system: MCF7; experiment: Antiproliferative activity against human MCF7 cells measured after 72 hrs by MTT assay; format: functional, cell-based; settings: MCF7, 72 h

IC50 [1]: 47 nM
IC50 [2]: 40 nM
IC50 [3]: > 200 nM
IC50 [4]: 530 nM
IC50 [5]: > 200 nM
IC50 [6]: 1460 nM
IC50 [7]: 32 nM
IC50 [8]: 62 nM
IC50 [9]: > 200 nM
IC50 [10]: 1000 nM
SMILES: COc1cc2c(Oc3ccc(NC(=O)C(C)c4nnc(-c5ccc(F)cc5)o4)cc3F)ccnc2cc1OCCCN1CCC(C)CC1 (stereo not given)
